Key:
Assay in all cases: relative viability (nuclei count vs DMSO), 5 days (fraction); higher = more cells survive
[1] = compound: C1=CC2=NC=CN=C2C=C1/C=C/3\C(=O)NC(=O)S3 + O=C(c1cc(Cc2n[nH]c(=O)c3ccccc23)ccc1F)N1CCN(C(=O)C2CC2)CC1 [Olaparib] (partner 8 µM)
How it was run: (§1)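 Lung cancer cell lines were seeded in 1536-well plates and dosed by pin tool the next day, with either a single drug or a fixed anchor-drug dose combined with five library-drug doses (not always all listed) spaced in √10 steps. Five days later, one step fixed the cells and stained their nuclei (final 0.05% Triton X-100, 1% formaldehyde, 1 ug/ml Hoechst), and nuclei were counted on 4× images. Relative viability is the nuclei count in treated wells divided by the count in vehicle wells, and each value is the median of duplicate plates.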

BGJ398 + Linsitinib = compound: CCN1CCN(c2ccc(Nc3cc(N(C)C(=O)Nc4c(Cl)c(OC)cc(OC)c4Cl)ncn3)cc2)CC1 [BGJ398] + C[C@]1(O)C[C@@H](c2nc(-c3ccc4ccc(-c5ccccc5)nc4c3)c3c(N)nccn32)C1 [Linsitinib] (partner 1 µM)
How it was run: as §1

BGJ398 + Bortezomib = compound: CCN1CCN(c2ccc(Nc3cc(N(C)C(=O)Nc4c(Cl)c(OC)cc(OC)c4Cl)ncn3)cc2)CC1 [BGJ398] + CC(C)C[C@H](NC(=O)[C@H](Cc1ccccc1)NC(=O)c1cnccn1)B(O)O [Bortezomib] (partner 0.002 µM)
How it was run: as §1

[2] = compound: C1=CC2=NC=CN=C2C=C1/C=C/3\C(=O)NC(=O)S3 + Cc1nc(NC(=O)N2CCC[C@H]2C(N)=O)sc1-c1ccnc(C(C)(C)C(F)(F)F)c1 [Alpelisib] (partner 2 µM)
How it was run: as §1

| Cell Line | relative viability ([1]; first compound 0.02 µM) | relative viability ([1]; first compound 0.06325 µM) | relative viability ([1]; first compound 0.2 µM) | relative viability ([1]; first compound 0.6325 µM) | relative viability ([1]; first compound 2 µM) | relative viability (BGJ398 + Linsitinib; first compound 0.01 µM) | relative viability (BGJ398 + Linsitinib; first compound 0.03162 µM) | relative viability (BGJ398 + Linsitinib; first compound 0.1 µM) | relative viability (BGJ398 + Linsitinib; first compound 0.3162 µM) | relative viability (BGJ398 + Linsitinib; first compound 1 µM) | relative viability (BGJ398 + Bortezomib; first compound 0.01 µM) | relative viability (BGJ398 + Bortezomib; first compound 0.03162 µM) | relative viability (BGJ398 + Bortezomib; first compound 0.1 µM) | relative viability (BGJ398 + Bortezomib; first compound 0.3162 µM) | relative viability (BGJ398 + Bortezomib; first compound 1 µM) | relative viability ([2]; first compound 0.02 µM) | relative viability ([2]; first compound 0.06325 µM) | relative viability ([2]; first compound 0.2 µM) | relative viability ([2]; first compound 0.6325 µM) | relative viability ([2]; first compound 2 µM) |
| --- | --- | --- | --- | --- | --- | --- | --- | --- | --- | --- | --- | --- | --- | --- | --- | --- | --- | --- | --- | --- |
| COR-L23 | 0.273 | 0.383 | 0.323 | 0.401 | 0.36 | 0.929 | 0.873 | 1.04 | 0.975 | 0.923 | 0.942 | 0.975 | 1.08 | 0.855 | 0.99 | 0.736 | 0.896 | 0.83 | 0.72 | 0.696 |
| ABC-1 | 0.712 | 0.88 | 0.859 | 0.782 | 0.735 | 0.685 | 1.01 | 0.746 | 0.999 | 0.658 | 0.306 | 0.34 | 0.287 | 0.321 | 0.299 | 1 | 1.14 | 0.933 | 1.01 | 1.02 |
| SW 900 | 0.789 | 0.769 | 0.884 |  | 0.727 |  |  |  |  |  |  |  |  |  |  |  |  |  |  |  |
| NCI-H838 | 0.731 | 0.872 | 0.795 | 0.71 | 0.636 | 0.94 | 0.979 | 0.927 | 0.919 | 0.716 | 0.636 | 0.921 | 0.655 | 0.776 | 0.5 | 0.989 | 1.16 | 1 | 1.04 | 0.913 |
| NCI-H1648 | 0.795 | 0.547 | 0.886 |  | 0.563 |  |  |  |  |  |  |  |  |  |  |  |  |  |  |  |
| A549 | 0.284 | 0.133 | 0.366 | 0.335 | 0.12 | 0.637 | 0.53 | 0.857 | 0.569 | 0.658 |  |  |  |  |  | 0.847 | 1.1 | 0.67 | 0.729 | 0.557 |
| A-427 | 0.71 | 0.83 | 0.716 | 0.716 | 0.634 | 1.12 | 1.15 | 1.15 | 0.884 | 0.799 | 0.984 | 0.991 | 1.12 | 0.774 | 0.743 | 1.06 | 1.08 | 1.1 | 1.07 | 1.12 |
| NCI-H1792 | 0.319 |  | 0.347 | 0.408 | 0.315 | 0.482 | 0.511 | 0.551 | 0.63 | 0.287 | 0.936 | 0.963 | 1.11 | 0.926 | 0.942 | 0.62 | 0.501 | 0.644 | 0.658 | 0.657 |
| LCLC-97TM1 | 0.354 | 0.372 | 0.36 | 0.334 | 0.281 | 0.169 | 0.159 | 0.194 | 0.212 | 0.186 | 0.685 | 0.492 | 0.789 | 0.529 | 0.329 | 0.234 | 0.267 | 0.294 | 0.268 | 0.178 |
| NCI-H1703 | 0.428 | 0.405 | 0.434 | 0.27 | 0.322 | 0.811 | 0.497 | 0.699 | 0.569 | 0.705 | 0.451 | 0.467 | 0.253 | 0.261 | 0.457 | 0.362 | 0.306 | 0.296 | 0.386 | 0.267 |
| LCLC-103H | 0.75 | 0.788 | 0.727 | 0.725 | 0.729 | 1.05 | 1.15 | 1.07 | 1.02 | 1.1 | 1.15 | 1.02 | 1.07 | 0.963 | 0.875 | 0.876 | 0.906 | 1.01 | 1.03 | 0.925 |
| PC-3 [JPC-3] | 1.07 | 1.18 | 1.11 | 1.18 | 1.13 | 1.01 |  | 0.959 | 0.864 | 1.01 | 0.851 |  | 0.914 | 0.804 | 0.765 | 1.07 | 1.12 | 0.994 | 0.987 | 1.03 |
| BEN | 1.09 | 1.05 | 1.02 | 1.12 | 1.03 | 0.935 | 0.95 | 0.89 | 0.818 | 0.798 | 0.719 | 0.976 | 0.715 | 0.656 | 0.619 | 1.07 | 0.877 | 1.22 | 0.911 | 1.09 |
| ChaGo-K-1 | 0.385 | 0.351 | 0.431 | 0.412 | 0.412 |  |  |  |  |  | 1.12 | 0.928 | 0.957 | 0.896 | 0.604 |  |  |  |  |  |
| NCI-H358 | 0.559 | 0.663 | 0.65 | 0.667 | 0.419 | 0.631 | 0.714 | 0.724 | 0.707 | 0.848 |  |  |  |  |  | 0.953 | 0.955 | 0.87 | 0.791 | 0.547 |
| NCI-H1944 | 0.384 | 0.391 | 0.333 | 0.412 | 0.418 | 1.17 | 1.22 | 1.28 | 1.2 | 1.28 |  |  |  |  |  | 0.856 | 0.763 | 0.853 | 0.776 | 0.8 |
| NCI-H2342 | 0.396 | 0.403 | 0.449 | 0.415 | 0.373 |  |  |  |  |  |  |  |  |  |  |  |  |  |  |  |
| NCI-H522 | 0.593 | 0.561 | 0.723 | 0.677 | 0.545 |  |  |  |  |  |  |  |  |  |  |  |  |  |  |  |
| SK-MES-1 | 0.677 | 0.793 | 0.846 | 0.796 | 0.657 | 1.01 | 1.12 | 1.09 | 1.01 | 1.11 |  |  |  |  |  |  | 0.987 | 0.86 | 0.868 | 0.802 |
| NCI-H2170 | 0.55 | 0.594 | 0.609 | 0.577 | 0.563 |  |  |  |  |  |  |  |  |  |  | 0.757 | 0.761 | 0.928 | 0.769 | 0.746 |
| NCI-H1793 | 0.805 | 0.752 | 0.801 | 0.779 | 0.702 | 0.804 |  | 0.833 | 0.71 | 0.756 |  |  |  |  |  | 0.655 | 0.811 | 0.728 | 0.709 | 0.742 |

From the supplement of paper PMC10307832
